This note sets out measurements from publication PMC12736008, “New Dimethylpyridine-3-Carboxamide Derivatives as MMP-13 Inhibitors with Anticancer Activity” (Molecules, 2025).

The target of one test is T1, HSA/Dansyl-L-Phe (Homo sapiens, UniProt P02768).
T1 construct: purchased Sigma-Aldrich
In words: Marker displacement from HSA/Dansyl-L-Phe complex (Sudlow site II). Format: binding. The following applies: room temperature. The source says: The human serum albumin (HSA) has two main drug-binding sites, known as Sudlow site I and Sudlow site II, located in subdomains IIA and IIIA of the albumin structure, respectively. […] In addition to these main sites, HSA has the capacity to bind ligands in other regions, including histidine residues, the N-terminus of the molecule, and metal binding sites. However, it is most common for drugs to bind to Sudlow I and Sudlow II. In order to study binding to a specific site in the protein, fluorescent markers, Dansyl-L-Gly and Dansyl-L-Phe, were used. The Dansyl-L-Gly interacts with Sudllow I, while the Dansyl-L-Phe prefers Sudllow II [41, 42]. The tested compounds were added in portions to the solution that contained the HSA/marker complex, and the fluorescence spectrum was recorded (Figure 11 and Figure 12). The percentage of compound exchange in the albumin pocket was calculated using Equation (6):(6) displacement % =F^0 −F /F^0 where F^0 is the maximum fluorescence intensity of HSA/Dansyl-L-Gly complex, and F is the maximum fluorescence intensity after a quencher addition. The calculated data were collected in Table 6. It was observed that only compound 3b displaces from the Dansyl-L-Gly binding site, as indicated by a decrease in fluorescence intensity with increasing concentration of this derivative, but only to approximately 8%. […] The band intensity increases slightly, which may be due to the dilution of the solution. The dilution of the sample leads to an increase in the average distance between molecules. This, in turn, results in a reduction in the number of collisions and reabsorptions, thereby enhancing the efficiency of fluorescence emission. Nevertheless, the binding site for Dansyl-L-Phe was displaced by all of the tested derivatives.
Solutions of Dansyl-L-Phe (Chem-Norm Biotech, Wuhan, China) and Dansyl-L-Gly (Sigma-Aldrich, Tokyo, Japan) were prepared by dissolving them separately in ethanol to a final concentration of 1·10^−3 mol/dm^3. The HSA solution was prepared in the same way as for titration binding measurements. Spectra were recorded at room temperature using a Cary Eclipse 500 spectrophotometer (Agilent, Santa Clara, CA, USA) with an excitation wavelength of 350 nm, and an emission range of 410–670 nm and the PMT voltages were (V) 700 and 650 for Dansyl-L-Gly and Dansyl-L-Phe, respectively. The complexes were prepared by mixing the HSA solution with the dansylated markers, and then adding the solution of the studied compounds from a ratio of 0 to 11.0 molar at the same increments, using the same protocol as in the spectroscopy studies.

Test [1] concerns HT-29 (colorectal adenocarcinoma) cells. In words: MTT assay, HT-29. The format is cell-based, human. The settings on record: for reduction in cancer cell viability / anticancer potential (HT-29): MTT, 24 h, 0.004 mM to 0.5 mM. The text has this:
As mentioned earlier, MMP-13 is overexpressed and functionally significant in various cancers, including melanoma and colorectal carcinoma. For instance, high MMP-13 levels have been correlated with metastasis and poor survival in melanoma patients. In colorectal cancer, elevated MMP-13 activity has been observed in tumors compared to normal mucosa, and its expression is associated with a worse prognosis. Based on computational studies, four out of the eleven designed compounds showing the most promising predicted activity against MMP-13 were selected for biological evaluation. For the MTT assay, NHDF cells were used as the healthy reference cell line, while A375 (melanoma) and HT-29 (colorectal adenocarcinoma cancer) cell lines were chosen as cancer models.
Experiments were conducted using two cancer cell lines and, as a control, a normal human dermal fibroblasts (NHDF; ATCC PCS-201-012). The A375 cell line (human melanoma, ATCC CRL-1619), and HT-29 cell line (human colorectal adenocarcinoma, ATCC HTB-38) were cultured in DMEM (Dulbecco’s Modified Eagle Medium, Institute of Immunology and Experimental Therapy (IITD), Wrocław, Poland) supplemented with 1% antibiotics (10 U/mL penicillin and 10 µg/mL streptomycin, Sigma-Aldrich, St Louis, MO, USA), 1% glutamine (Sigma-Aldrich, St Louis, MO, USA) and 10% fetal bovine serum (FBS, Gibco, Grand Island, NY, USA). For NHDF cultures, α-MEM (α-Minimum Essentials Medium, Institute of Immunology and Experimental Therapy (IITD), Poland) was used with the same supplement combination as for the cancer cell lines. All cells were maintained in a humidified incubator (INCO 105, Memmert GmbH, Schwabach, Germany) at 37 °C with 5% CO2 and 95% humidity. Cells were passaged routinely by trypsinization (twice a week). For the MTT (3-(4,5-simethylthiazol-2,5-diphenyltetrazolinum bromide), Sigma, St. Louis, MO, USA) assay, cells were used after 2–4 passages, when they reached approximately 80% confluence.
All tested compounds were dissolved in DMSO to obtain stock solutions with a final concentration of 50 mM (3a, 3b, 3e), 40 mM (3f, 3g, 3i, 3j), and 35 mM (3h, 3k). […] In the next step, 10 µL of each stock solution was added to 990 µL of supplemented medium.
The MTT assay was performed in 96-well plates, with a seeding density of 1 × 10^4 cells per well. All cell lines were incubated for 24 h in their respective media: α-MEM for (NHDF cells) and DMEM for (A375 and HT-29) cells. After incubation, the medium was removed and replaced with fresh medium containing the tested compounds at concentrations ranging from 0.004 mM to 0.5 mM. […] Absorbance was measured spectrophotometrically at a wavelength of 570 nm using a BioTek SYNERGY H1 microplate reader (Agilent, Santa Clara, CA, USA).
(Tetrazolium assays rely on reduction of a dye to a coloured formazan, in cell work by metabolically active cells.)

T1 sequence (P02768 25-609): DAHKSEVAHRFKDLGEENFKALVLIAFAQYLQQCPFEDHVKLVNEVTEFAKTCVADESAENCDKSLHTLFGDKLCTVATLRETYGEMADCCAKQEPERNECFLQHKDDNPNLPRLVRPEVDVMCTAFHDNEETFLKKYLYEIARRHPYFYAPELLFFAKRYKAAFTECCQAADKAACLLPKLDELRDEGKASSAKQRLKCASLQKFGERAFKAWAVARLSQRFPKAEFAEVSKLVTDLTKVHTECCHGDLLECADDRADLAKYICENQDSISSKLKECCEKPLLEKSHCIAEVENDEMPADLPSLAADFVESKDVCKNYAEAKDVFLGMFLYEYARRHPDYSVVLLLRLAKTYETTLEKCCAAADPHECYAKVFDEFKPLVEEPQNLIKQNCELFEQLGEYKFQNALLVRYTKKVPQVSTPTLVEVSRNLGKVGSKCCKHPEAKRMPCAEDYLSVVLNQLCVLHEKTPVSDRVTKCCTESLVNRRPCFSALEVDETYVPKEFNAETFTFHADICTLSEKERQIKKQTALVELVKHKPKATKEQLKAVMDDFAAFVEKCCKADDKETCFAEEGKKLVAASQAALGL

Consider `Cc1cc(C)c(C(=O)NCC(=O)NCc2ccccc2)c(S)n1` [Compound 3g, 4,6-dimethyl-N-[2-(benzylamino)-2-oxoethyl]-2-sulfanylpyridine-3-carboxamide], for which the “Marker Displacement Percentage HSA/Dansyl-L-Gly” value on HSA/Dansyl-L-Phe is on record as 11.1%. The “reduction in cancer cell viability / anticancer potential (HT-29)” value in test [1] is recorded as “only moderate anticancer potential”.

Regarding `Cc1cc(C)c(C(=O)NCC(=O)NCc2ccc(Cl)cc2)c(S)n1` [Compound 3c, N-{2-[(4-chlorobenzyl)amino]-2-oxoethyl}-4,6-dimethyl-2-sulfanylpyridine-3-carboxamide], the “Marker Displacement Percentage HSA/Dansyl-L-Gly” value at HSA/Dansyl-L-Phe is given as 18.5%. In addition, in test [1], the “reduction in cancer cell viability / anticancer potential (HT-29)” value is “strongest reduction in cancer cell viability”.

For the compound `Cc1cc(C)c(C(=O)NCC(=O)NCc2ccccc2Cl)c(S)n1` [Compound 3d, N-{2-[(2-chlorobenzyl)amino]-2-oxoethyl}-4,6-dimethyl-2-sulfanylpyridine-3-carboxamide], the “Marker Displacement Percentage HSA/Dansyl-L-Gly” value at HSA/Dansyl-L-Phe stood at 10.6%. Moreover, the “reduction in cancer cell viability / anticancer potential (HT-29)” value in test [1] was “strongest reduction in cancer cell viability”.

For `Cc1cc(C)c(C(=O)NCC(=O)NCc2ccc(Oc3ccccc3)cc2)c(S)n1` [Compound 3b, 4,6-dimethyl-N-{2-[(4-phenoxybenzyl)amino]-2-oxoethyl}-2-sulfanylpyridine-3-carboxamide], on HSA/Dansyl-L-Phe, the “Marker Displacement Percentage HSA/Dansyl-L-Gly” value was 35.2%. Moreover, the “selectivity ratio HT-29:NHDF” value in test [1] (at a concentration of 0.5 mM) turned out to be 0.43.
